Measured values reported in patent publication US9963467B2, “Boronic acid derivatives and therapeutic uses thereof” (Rempex Pharmaceuticals, Inc., priority 2014, dated 2018).
pKi: −log10 of the molar value.

What was measured:
[1] = biological target: KPC-2 (Klebsiella pneumoniae, UniProt Q9F663); assay: Ki, nitrocefin cleavage by purified enzyme, KPC-2; assay type: biochemical; settings: nitrocefin reporter substrate; read-out: Ki (KPC-2, NCF)
Outline: (§1)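 Readout: nitrocefin hydrolysis, A490 recorded every 10 sec over 10 min. Enzyme and inhibitor (varied concentrations) preincubated 10 min, RT, in reaction buffer before substrate addition.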

[2] = biological target: CTX-M-14 (Escherichia coli, UniProt Q9L5C7); assay: Ki, nitrocefin cleavage by purified enzyme, CTX-M-14; assay type: biochemical; settings: nitrocefin reporter substrate; read-out: Ki (CTX-M-14, NCF)
Sequence of CTX-M-14 (Q9L5C7 29-291): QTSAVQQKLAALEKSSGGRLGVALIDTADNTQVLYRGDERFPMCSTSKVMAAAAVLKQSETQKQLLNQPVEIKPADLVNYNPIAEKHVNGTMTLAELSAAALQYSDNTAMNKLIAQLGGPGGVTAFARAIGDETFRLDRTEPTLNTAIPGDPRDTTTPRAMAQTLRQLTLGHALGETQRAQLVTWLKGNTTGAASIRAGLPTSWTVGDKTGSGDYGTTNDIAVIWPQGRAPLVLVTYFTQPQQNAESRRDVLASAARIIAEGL
Outline: as §1

[3] = system: KP1086 (OXA-48); assay: Biapenem potentiation (MPC@1), KP1086; settings: BLI with biapenem at 1 μg/mL
[4] = system: KP1009 (CTX-M-15); assay: organism not typed; assay type: cell-based
[5] = Monomer content of pH adjusted aqueous solutions (LC-UV); assay type: physicochemical; settings: 1 mg/mL aqueous salt solution, pH adjusted to 7.6 to 8, LC-UV
Outline: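 Aqueous solutions at 1.00, 10.0 or 100 mg/mL (active fraction) brought to pH 7.6–8 with acid or base, compound fully dissolved. Injected within half an hour of preparation onto C18 reversed-phase LC (0.1% TFA water / 0.085% TFA methanol gradient); UV detection at 220, 254 and 300 nm.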

[6] = system: ec302 (TEM-10); assay: Tigemonam potentiation (MPC@4), ec302; assay type: cell-based
[7] = system: ECL1002; assay: Aztreonam potentiation (MPC@4), ECL1002; assay type: cell-based; settings: BLI with aztreonam at 4 μg/mL
[8] = system: EC1010 (CMY-6); assay: organism not typed; assay type: cell-based
[9] = system: ECL1002; assay: Tigemonam potentiation (MPC@4), ECL1002; assay type: cell-based; settings: BLI with tigemonam at 4 μg/mL
[10] = system: ec302 (TEM-10); assay: Aztreonam potentiation (MPC@4), ec302; assay type: cell-based; settings: BLI with aztreonam at 4 μg/mL
[11] = system: EC1010 (CMY-6); assay: Tigemonam potentiation (MPC@4), EC1010; assay type: cell-based; settings: BLI with tigemonam at 4 μg/mL
[12] = biological target: SHV-12 (Klebsiella pneumoniae, UniProt P0AD64, E235K/G234S/L31Q); assay: Ki, nitrocefin cleavage by purified enzyme, SHV-12; assay type: biochemical; settings: nitrocefin reporter substrate; read-out: Ki (SHV-12, NCF)
Sequence of SHV-12 (P0AD64 22-286 L31Q/G234S/E235K): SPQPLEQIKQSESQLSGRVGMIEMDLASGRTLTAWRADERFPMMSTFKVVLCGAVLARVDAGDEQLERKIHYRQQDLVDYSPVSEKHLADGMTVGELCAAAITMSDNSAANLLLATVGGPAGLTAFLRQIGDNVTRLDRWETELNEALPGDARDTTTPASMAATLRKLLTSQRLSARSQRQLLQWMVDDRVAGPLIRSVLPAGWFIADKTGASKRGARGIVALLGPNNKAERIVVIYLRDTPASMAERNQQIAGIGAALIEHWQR
Outline: as §1

[13] = system: KP1005 (CTX-M-14); assay: Aztreonam potentiation (MPC@4), KP1005; assay type: cell-based; settings: BLI with aztreonam at 4 μg/mL
[14] = biological target: OXA-48 (Klebsiella pneumoniae, UniProt Q6XEC0); assay: Ki, nitrocefin cleavage by purified enzyme, OXA-48; assay type: biochemical; settings: nitrocefin reporter substrate; read-out: Ki (OXA-48, NCF)
Sequence of OXA-48 (Q6XEC0 23-265, looked up, species assumed): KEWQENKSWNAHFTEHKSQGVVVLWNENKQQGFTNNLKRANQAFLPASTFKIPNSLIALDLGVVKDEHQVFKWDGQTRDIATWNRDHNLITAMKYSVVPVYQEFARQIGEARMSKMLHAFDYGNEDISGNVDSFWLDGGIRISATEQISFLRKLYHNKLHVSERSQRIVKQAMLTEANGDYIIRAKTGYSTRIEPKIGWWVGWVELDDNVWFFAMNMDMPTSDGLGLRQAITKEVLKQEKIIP
Outline: as §1

[15] = system: KP1009 (CTX-M-15); assay: Tigemonam potentiation (MPC@4), KP1009; assay type: cell-based; settings: BLI with tigemonam at 4 μg/mL
[16] = system: KP1004 (KPC-2); assay: Biapenem potentiation (MPC@1), KP1004; settings: BLI with biapenem at 1 μg/mL
[17] = biological target: Pa AmpC (Pseudomonas aeruginosa, UniProt P24735); assay: Ki, nitrocefin cleavage by purified enzyme, Pa AmpC; assay type: biochemical; settings: nitrocefin reporter substrate; read-out: Ki (Pa AmpC, NCF)
Sequence of Pa AmpC (P24735 27-397): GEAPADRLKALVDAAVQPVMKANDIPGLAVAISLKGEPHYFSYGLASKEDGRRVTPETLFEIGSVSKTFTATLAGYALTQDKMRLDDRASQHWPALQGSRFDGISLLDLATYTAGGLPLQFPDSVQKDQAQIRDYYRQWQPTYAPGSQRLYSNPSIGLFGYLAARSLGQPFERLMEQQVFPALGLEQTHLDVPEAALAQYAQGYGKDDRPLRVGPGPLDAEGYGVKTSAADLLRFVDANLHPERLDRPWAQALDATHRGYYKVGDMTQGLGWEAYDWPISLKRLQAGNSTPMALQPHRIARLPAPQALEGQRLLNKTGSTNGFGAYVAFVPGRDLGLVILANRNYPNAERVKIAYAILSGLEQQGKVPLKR
Outline: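 Enzyme–inhibitor mixtures, spanning various inhibitor concentrations, were held 10 min at room temperature in reaction buffer prior to nitrocefin addition. Spectrophotometric monitoring of substrate cleavage at 490 nm then ran 10 min at 10-sec intervals to yield Ki.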

[18] = biological target: P99 (Enterobacter cloacae, UniProt P05364); assay: Ki, nitrocefin cleavage by purified enzyme, P99; assay type: biochemical; settings: nitrocefin reporter substrate; read-out: Ki (P99, NCF)
Sequence of P99 (P05364 21-381): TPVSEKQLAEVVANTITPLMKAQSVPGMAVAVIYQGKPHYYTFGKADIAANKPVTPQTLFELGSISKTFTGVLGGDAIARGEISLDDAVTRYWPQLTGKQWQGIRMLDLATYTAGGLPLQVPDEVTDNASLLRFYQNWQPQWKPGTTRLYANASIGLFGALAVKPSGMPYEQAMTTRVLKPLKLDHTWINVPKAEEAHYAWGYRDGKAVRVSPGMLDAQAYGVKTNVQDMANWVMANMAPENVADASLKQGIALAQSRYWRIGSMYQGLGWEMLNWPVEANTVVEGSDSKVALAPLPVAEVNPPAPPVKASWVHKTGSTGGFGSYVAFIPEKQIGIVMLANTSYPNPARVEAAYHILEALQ
Outline: as §1

[19] = system: KP1010 (SHV-12); assay: Tigemonam potentiation (MPC@4), KP1010; assay type: cell-based
[20] = system: KP1004 (KPC-2); assay: Aztreonam potentiation (MPC@4), KP1004; assay type: cell-based; settings: BLI with aztreonam at 4 μg/mL
[21] = system: ec308 (SHV-5); assay: Tigemonam potentiation (MPC@4), ec308; assay type: cell-based
[22] = system: KP1005 (CTX-M-14); assay: Tigemonam potentiation (MPC@4), KP1005; assay type: cell-based; settings: BLI with tigemonam at 4 μg/mL

Sequence of KPC-2 (Q9F663 25-293, looked up, species assumed): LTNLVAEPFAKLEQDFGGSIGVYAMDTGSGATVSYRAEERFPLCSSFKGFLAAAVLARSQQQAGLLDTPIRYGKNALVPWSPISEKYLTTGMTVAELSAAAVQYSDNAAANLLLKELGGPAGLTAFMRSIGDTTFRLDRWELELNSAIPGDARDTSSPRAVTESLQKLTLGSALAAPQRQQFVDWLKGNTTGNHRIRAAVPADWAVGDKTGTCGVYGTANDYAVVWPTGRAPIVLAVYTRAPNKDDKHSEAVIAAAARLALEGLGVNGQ

Compound	pKi [1]	pKi [2]	BPM MPC1 OXA-48 KP1086 [3]	AZT MPC4 CTX-M-15 KP1009 [4]	% Monomer in 1 mg/mL salt solution [5] [%]	TIG MPC4 TEM-10 ec302 [6]	AZT MPC4 ECL1002 [7]	AZT MPC4 CMY-6 EC1010 [8]	TIG MPC4 ECL1002 [9]	AZT MPC4 TEM-10 ec302 [10]	TIG MPC4 CMY-6 EC1010 [11]	pKi [12]	AZT MPC4 CTX-M-14 KP1005 [13]	pKi [14]	TIG MPC4 CTX-M-15 KP1009 [15]	BPM MPC1 KP1004 KPC-2 [16]	pKi [17]	pKi [18]	TIG MPC4 SHV-12 KP1010 [19]	AZT MPC4 KPC-2 KP1004 [20]	also measured
CSCC(=O)N[C@H]1Cc2ccc(Sc3nnc(N)s3)c(C(=O)O)c2OB1O [Compound 21, (R)-7-(5-amino-1,3,4-thiadiazol-2-ylthio)-2-hydroxy-3-(2-(methylthio)acetamido)-3,4-dihydro-2H-benzo[e][1,2]oxaborinine-8-carboxylic acid]	< 8.00	> 9.00	Z (MIC of greater than 10 μg/mL)	Y (key: X: MIC of less than 1 ng/mL; Y: MIC of 1 μg/mL to 10 μg/mL; Z: MIC of greater than 10 μg/mL)	98.1	Y (key: X: MIC of less than 1 ng/mL; Y: MIC of 1 μg/mL to 10 μg/mL; Z: MIC of greater than 10 μg/mL)	Y (MIC of 1 μg/mL to 10 μg/mL)	Y (key: X: MIC of less than 1 ng/mL; Y: MIC of 1 μg/mL to 10 μg/mL; Z: MIC of greater than 10 μg/mL)	Y (MIC of 1 μg/mL to 10 μg/mL)	Y (MIC of 1 μg/mL to 10 μg/mL)	Y (MIC of 1 μg/mL to 10 μg/mL)	> 9.00	Y (MIC of 1 μg/mL to 10 μg/mL)	> 9.00	Y (MIC of 1 μg/mL to 10 μg/mL)	Y (MIC of 1 μg/mL to 10 μg/mL)	< 8.00	< 8.00	X (key: X: MIC of less than 1 μg/mL; Y: MIC of 1 μg/mL to 10 μg/mL; Z: MIC of greater than 10 μg/mL)	Y (MIC of 1 μg/mL to 10 μg/mL)	TIG MPC4 SHV-5 ec308 [21]: X (key: X: MIC of less than 1 μg/mL; Y: MIC of 1 μg/mL to 10 μg/mL; Z: MIC of greater than 10 μg/mL); TIG MPC4 CTX-M-14 KP1005 [22]: Y (MIC of 1 μg/mL to 10 μg/mL)
CSCC(=O)N[C@H]1Cc2ccc(SCC3CCNCC3)c(C(=O)O)c2OB1O [Compound 24, (R)-2-hydroxy-3-(2-(methylthio)acetamido)-7-(piperidin-4-ylmethylthio)-3,4-dihydro-2H-benzo[e][1,2]oxaborinine-8-carboxylic acid]	< 8.00	> 9.00	Z (MIC of greater than 10 μg/mL)	Y (key: X: MIC of less than 1 ng/mL; Y: MIC of 1 μg/mL to 10 μg/mL; Z: MIC of greater than 10 μg/mL)	98.3	Z (key: X: MIC of less than 1 ng/mL; Y: MIC of 1 μg/mL to 10 μg/mL; Z: MIC of greater than 10 μg/mL)	Y (MIC of 1 μg/mL to 10 μg/mL)	Y (key: X: MIC of less than 1 ng/mL; Y: MIC of 1 μg/mL to 10 μg/mL; Z: MIC of greater than 10 μg/mL)	Y (MIC of 1 μg/mL to 10 μg/mL)	Y (MIC of 1 μg/mL to 10 μg/mL)	Y (MIC of 1 μg/mL to 10 μg/mL)	8.00 to 9.00	Y (MIC of 1 μg/mL to 10 μg/mL)	> 9.00	Y (MIC of 1 μg/mL to 10 μg/mL)	X (MIC of less than 1 μg/mL)	< 8.00	< 8.00	X (key: X: MIC of less than 1 μg/mL; Y: MIC of 1 μg/mL to 10 μg/mL; Z: MIC of greater than 10 μg/mL)	Y (MIC of 1 μg/mL to 10 μg/mL)	TIG MPC4 SHV-5 ec308 [21]: Y (key: X: MIC of less than 1 ng/mL; Y: MIC of 1 μg/mL to 10 μg/mL; Z: MIC of greater than 10 μg/mL); TIG MPC4 CTX-M-14 KP1005 [22]: Y (MIC of 1 μg/mL to 10 μg/mL)
